The values that follow come from patent US9617256B2 (priority 2007, dated 2017).

The subject of one experiment is AECO001 (ATCC25922). As to the kind of experiment: MIC broth microdilution, AECO001. Type of experiment: cell-based, E. coli. The following applies: Escherichia coli, ATCC25922, read-out: MIC AECO001. An outline of the steps: (§1)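 Strains were grown overnight at 35° C. on Mueller-Hinton agar, suspended to 0.5 McFarland and diluted to a final 3×10^5–7×10^5 CFU/mL. They were then exposed to 2-fold serial drug dilutions in cation-adjusted Mueller-Hinton broth and incubated 18-24 hours at 35° C.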

The test system of experiment [1] is AECO063 (ATCC25922 bearing an acrAB mutation). As to the kind of experiment: microbe, parasite or virus in culture. Type of experiment: cell-based, E. coli. The following applies: Escherichia coli, ATCC25922, read-out: MIC AECO063. A digest of the protocol: as §1
The next experiment relates to APAE001 (ATCC27853). As to the kind of experiment: MIC broth microdilution, APAE001. Type of experiment: cell-based, P. aeruginosa. The following applies: Pseudomonas aeruginosa, ATCC27853, read-out: MIC APAE001, APAE001 is ATCC27853. A digest of the protocol: as §1
(In general: Broth dilution looks for growth in wells or tubes with falling amounts of substance.)

Experiment [2] relates to APAE006 (strain of P. aeruginosa in which all efflux pumps are inactivated). The experiment in a line: microbe, parasite or virus in culture. In kind it is cell-based. The following applies: Pseudomonas aeruginosa, read-out: MIC APAE006, P. aeruginosa, all efflux pumps inactivated. An outline of the steps: (§2)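 Two-fold drug dilutions in cation-adjusted MHB were inoculated to 3×10^5–7×10^5 CFU/mL and held at 35° C. for 18-24 hours (ambient air), following CLSI. APAE006 is an efflux-deficient P. aeruginosa.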

The subject of experiment [3] is APAE006 in the presence of 8 micrograms per milliliter of polymyxin B nonapeptide. In kind it is cell-based, P. aeruginosa. The following applies: in the presence of 8 micrograms per milliliter of polymyxin B nonapeptide. An outline of the steps:
as §2

Experiment [4] deals with AABA1060 (clinical isolate of Acinetobacter baumannii). As to the kind of experiment: MIC broth microdilution, AABA1060. Type of experiment: cell-based. The following applies: Acinetobacter baumannii, read-out: MIC AABA1060. An outline of the steps:
as §1

Experiment [5] has as its system ASAU001 (laboratory strain of S. aureus, ATCC29213). The experiment in a line: MIC broth microdilution, ASAU001. Type of experiment: cell-based. The following applies: Staphylococcus aureus, ATCC29213, read-out: MIC ASAU001. An outline of the steps: as §1
Another experiment relates to AECO001 HSA AGP. The experiment in a line: MIC broth microdilution, AECO001 HSA AGP. Type of experiment: cell-based, E. coli. The following applies: Escherichia coli. A digest of the protocol:
as §1

SMILES strings stand for the structures. ≈ marks a conversion by molar mass, not a printed value.

Turning to `C[C@@H](NCC(=O)NC[C@H](NC(=O)c1ccc(C#C/C=C/c2ccccc2)cc1)C(=O)NO)c1ccccc1` [Example 105-4], the MIC is less than 2 µg/mL in the experiment on AECO001 (ATCC25922); less than 2 µg/mL in experiment [1]; 16 to 64 µg/mL (≈ 31.3 to 125 µM) in the experiment on APAE001 (ATCC27853); 2 to 16 µg/mL (≈ 3.92 to 31.3 µM) in experiment [2]; 16 to 64 µg/mL (≈ 31.3 to 125 µM) in experiment [4]; 16 to 64 µg/mL (≈ 31.3 to 125 µM) in experiment [5]. The same compound displayed an MIC in the experiment on AECO001 HSA AGP of 2 to 16 µg/mL (≈ 3.92 to 31.3 µM). In addition, the “MIC APAE006 + PMBN” value in experiment [3] is recorded as “A (MIC's of 2.0 μg/mL or less = A)”.

On to `C[C@@H](NCC(=O)N[C@H](C)[C@H](NC(=O)c1ccc(C#C/C=C/c2ccccc2)cc1)C(=O)NO)c1ccccc1` [Example 105-5], for which the MIC is 2 to 16 µg/mL (≈ 3.81 to 30.5 µM) with AECO001 (ATCC25922); less than 2 µg/mL in experiment [1]; 16 to 64 µg/mL (≈ 30.5 to 122 µM) with APAE001 (ATCC27853); 2 to 16 µg/mL (≈ 3.81 to 30.5 µM) in experiment [2]; 16 to 64 µg/mL (≈ 30.5 to 122 µM) in experiment [4]; 16 to 64 µg/mL (≈ 30.5 to 122 µM) in experiment [5]. This compound displayed an MIC against AECO001 HSA AGP of 2 to 16 µg/mL (≈ 3.81 to 30.5 µM). For the same compound, the “MIC APAE006 + PMBN” value in experiment [3] is “A (MIC's of 2.0 μg/mL or less = A)”.

In the case of `C[C@@H](O)[C@H](NC(=O)c1ccc(C=C(F)C#Cc2ccc(CN3CCOCC3)cc2)cc1)C(=O)NO` [Example 109-1, 4-(2-fluoro-4-(4-(morpholinomethyl)phenyl)but-1-en-3-ynyl)-N-((2S,3R)-3-hydroxy-1-(hydroxyamino)-1-oxobutan-2-yl)benzamide], the MIC is less than 2 µg/mL with AECO001 (ATCC25922); less than 2 µg/mL in experiment [1]; 2 to 16 µg/mL (≈ 4.15 to 33.2 µM) in the experiment on APAE001 (ATCC27853); less than 2 µg/mL in experiment [2]; 2 to 16 µg/mL (≈ 4.15 to 33.2 µM) in experiment [4]; greater than 64 µg/mL in experiment [5]. In addition, the MIC in the experiment with AECO001 HSA AGP is 2 to 16 µg/mL (≈ 4.15 to 33.2 µM). For the same compound, in experiment [3], the “MIC APAE006 + PMBN” value was “A (MIC's of 2.0 μg/mL or less = A)”.

As for `COC(=O)[C@@H](NC(=O)c1ccc(C#C/C(F)=C/c2ccc(CN3CCOCC3)cc2)cc1)[C@@H](C)O` [Example 109-2, (2S,3R)-methyl 2-(4-((Z)-3-fluoro-4-(4-(morpholinomethyl)phenyl)but-3-en-1-ynyl)benzamido)-3-hydroxybutanoate], the MIC is less than 2 µg/mL with AECO001 (ATCC25922); less than 2 µg/mL in experiment [1]; 2 to 16 µg/mL (≈ 4.16 to 33.3 µM) with APAE001 (ATCC27853); less than 2 µg/mL in experiment [2]; 2 to 16 µg/mL (≈ 4.16 to 33.3 µM) in experiment [4]; 16 to 64 µg/mL (≈ 33.3 to 133 µM) in experiment [5]. In addition, the MIC against AECO001 HSA AGP was 2 to 16 µg/mL (≈ 4.16 to 33.3 µM). For the same compound, the “MIC APAE006 + PMBN” value in experiment [3] is reported as “A (MIC's of 2.0 μg/mL or less = A)”.

As to `CC(C)[C@H](NC(=O)c1ccc(/C=C/C#Cc2ccc(CN3CCOCC3)cc2)cc1)C(=O)NO` [Example 110-2], the MIC in the experiment with AECO001 (ATCC25922) was less than 2 µg/mL; in experiment [1] it was less than 2 µg/mL; in the experiment with APAE001 (ATCC27853), 2 to 16 µg/mL (≈ 4.33 to 34.7 µM); in experiment [2], less than 2 µg/mL; in experiment [4], 2 to 16 µg/mL (≈ 4.33 to 34.7 µM); in experiment [5] it was greater than 64 µg/mL. In addition, the MIC against AECO001 HSA AGP lay in the range of 2 to 16 µg/mL (≈ 4.33 to 34.7 µM). Besides, in experiment [3], the “MIC APAE006 + PMBN” value is “A (MIC's of 2.0 μg/mL or less = A)”.

With `C[C@@H](N)[C@H](NC(=O)c1ccc(/C=C/C#Cc2ccc(CN3CCOCC3)cc2)cc1)C(=O)NO` [Example 110-3], the MIC is less than 2 µg/mL in the experiment on AECO001 (ATCC25922); less than 2 µg/mL in experiment [1]; less than 2 µg/mL in the experiment on APAE001 (ATCC27853); less than 2 µg/mL in experiment [2]; 2 to 16 µg/mL (≈ 4.32 to 34.6 µM) in experiment [4]; greater than 64 µg/mL in experiment [5]. The compound also came in with an MIC against AECO001 HSA AGP of 2 to 16 µg/mL (≈ 4.32 to 34.6 µM). Also, in experiment [3], the “MIC APAE006 + PMBN” value was “A (MIC's of 2.0 μg/mL or less = A)”.

Consider `O=C(N[C@H](C(=O)NO)C1CCOCC1)c1ccc(/C=C/C#Cc2ccc(CN3CCOCC3)cc2)cc1` [Example 110-4], for which the MIC was less than 2 µg/mL in the experiment with AECO001 (ATCC25922); less than 2 µg/mL in experiment [1]; 2 to 16 µg/mL (≈ 3.97 to 31.8 µM) with APAE001 (ATCC27853); less than 2 µg/mL in experiment [2]; 16 to 64 µg/mL (≈ 31.8 to 127 µM) in experiment [4]; 16 to 64 µg/mL (≈ 31.8 to 127 µM) in experiment [5]. Also, the MIC in the experiment on AECO001 HSA AGP was in the range of 2 to 16 µg/mL (≈ 3.97 to 31.8 µM). For the same compound, in experiment [3], the “MIC APAE006 + PMBN” value is “A (MIC's of 2.0 μg/mL or less = A)”.

In the case of `C[C@H](O)[C@H](NC(=O)c1ccc(/C=C/C#Cc2ccc(CN3CCOCC3)cc2)cc1)C(=O)NO` [Example 110-5], the MIC in the experiment with AECO001 (ATCC25922) was less than 2 µg/mL; in experiment [1], less than 2 µg/mL; in the experiment with APAE001 (ATCC27853), 2 to 16 µg/mL (≈ 4.31 to 34.5 µM); in experiment [2], less than 2 µg/mL; in experiment [4], 2 to 16 µg/mL (≈ 4.31 to 34.5 µM); in experiment [5], greater than 64 µg/mL. Besides, the MIC with AECO001 HSA AGP lay within 2 to 16 µg/mL (≈ 4.31 to 34.5 µM). In addition, the “MIC APAE006 + PMBN” value in experiment [3] is “A (MIC's of 2.0 μg/mL or less = A)”.
